# Laboratory results as given in ChEMBL document CHEMBL1201862, “PubChem BioAssay data set” (2004).
#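 A five-concentration, 48-hour dose response in 96-well plates underlies each endpoint, interpolated linearly between surrounding concentrations. Here, GI50 denotes the concentration required for 50% inhibition of growth.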 Active and inactive are the calls of the source. Cut-off read from the data, not from the text of the source: active = GI50 up to about 1.1 µM and inactive = higher.
# Key:
# Assay in all cases: inhibition of tumour cell growth, NCI panel, 48 h
# [1] = test system: 786-0
# [2] = test system: A498
# [3] = test system: A549
# [4] = test system: ACHN
# [5] = test system: CCRF-CEM
# [6] = test system: COLO 205
# [7] = test system: DLD-1
# [8] = test system: DMS-114
# [9] = test system: DMS-273
# [10] = test system: EKVX
# [11] = test system: HCT-116
# [12] = test system: HCT-15
# [13] = test system: HL-60
# [14] = test system: HOP-18
# [15] = test system: HOP-62
# [16] = test system: HOP-92
# [17] = test system: HT-29
# [18] = test system: IGROV-1
# [19] = test system: K562
# [20] = test system: KM-20L2
# [21] = test system: KM12
# [22] = test system: LOX IMVI
# [23] = test system: LXFL 529
# [24] = test system: M14
# [25] = test system: M19-MEL
# [26] = test system: MOLT-4
# [27] = test system: Malme-3M
# [28] = test system: NCI-H23
# [29] = test system: NCI-H460
# [30] = test system: NCI-H522
# [31] = test system: OVCAR-3
# [32] = test system: OVCAR-4
# [33] = test system: OVCAR-5
# [34] = test system: OVCAR-8
# [35] = test system: RPMI-8226
# [36] = test system: SF-268
# [37] = test system: SF-295
# [38] = test system: SF-539
# [39] = test system: SK-MEL-28
# [40] = test system: SK-MEL-2
# [41] = test system: SK-MEL-5
# [42] = test system: SK-OV-3
# [43] = test system: SN12C
# [44] = test system: SNB-19
# [45] = test system: SNB-75
# [46] = test system: SNB-78
# [47] = test system: TK-10
# [48] = test system: U-251
# [49] = test system: UACC-257
# [50] = test system: UACC-62
# [51] = test system: UO-31
# [52] = test system: XF498
# [53] = test system: CAKI-1
# [54] = test system: HCC 2998
# [55] = test system: NCI-H226
# [56] = test system: RXF 393
# [57] = test system: SW-620
smiles,measurement,setting,value
CC1=C(C(=O)O)N2C(=O)[C@@H](NC(=O)C(c3ccc(O)cc3)N3CSC(=S)N(C(C)C)C3)C2SC1 (stereo not given in full),GI50,[1],> 100 µM (inactive)
same,GI50,[2],> 100 µM (inactive)
same,GI50,[3],> 100 µM (inactive)
same,GI50,[4],> 100 µM (inactive)
same,GI50,[5],63.8 µM (inactive)
same,GI50,[6],97.7 µM (inactive)
same,GI50,[7],> 100 µM (inactive)
same,GI50,[8],> 100 µM (inactive)
same,GI50,[9],> 100 µM (inactive)
same,GI50,[10],> 100 µM (inactive)
same,GI50,[11],> 100 µM (inactive)
same,GI50,[12],> 100 µM
same,GI50,[13],> 100 µM (inactive)
same,GI50,[14],> 100 µM (inactive)
same,GI50,[15],> 100 µM (inactive)
same,GI50,[16],> 100 µM (inactive)
same,GI50,[17],> 100 µM (inactive)
same,GI50,[18],> 100 µM (inactive)
same,GI50,[19],57.8 µM (inactive)
same,GI50,[20],> 100 µM (inactive)
same,GI50,[21],> 100 µM (inactive)
same,GI50,[22],> 100 µM (inactive)
same,GI50,[23],> 100 µM (inactive)
same,GI50,[24],> 100 µM (inactive)
same,GI50,[25],> 100 µM (inactive)
same,GI50,[26],> 100 µM (inactive)
same,GI50,[27],> 100 µM (inactive)
same,GI50,[28],> 100 µM (inactive)
same,GI50,[29],> 100 µM (inactive)
same,GI50,[30],50.1 µM (inactive)
same,GI50,[31],99.1 µM (inactive)
same,GI50,[32],> 100 µM (inactive)
same,GI50,[33],> 100 µM (inactive)
same,GI50,[34],> 100 µM (inactive)
same,GI50,[35],> 100 µM (inactive)
same,GI50,[36],> 100 µM (inactive)
same,GI50,[37],> 100 µM (inactive)
same,GI50,[38],> 100 µM (inactive)
same,GI50,[39],> 100 µM (inactive)
same,GI50,[40],> 100 µM (inactive)
same,GI50,[41],> 100 µM (inactive)
same,GI50,[42],> 100 µM (inactive)
same,GI50,[43],> 100 µM (inactive)
same,GI50,[44],> 100 µM (inactive)
same,GI50,[45],> 100 µM (inactive)
same,GI50,[46],> 100 µM (inactive)
same,GI50,[47],> 100 µM (inactive)
same,GI50,[48],> 100 µM (inactive)
same,GI50,[49],> 100 µM (inactive)
same,GI50,[50],> 100 µM (inactive)
same,GI50,[51],> 100 µM (inactive)
same,GI50,[52],> 100 µM (inactive)
CCOC(=O)C1S/C(=N\c2ccc(Cl)cc2Cl)N=C1C (stereo not given),GI50,[1],53.3 µM (inactive)
same,GI50,[2],39.3 µM (inactive)
same,GI50,[3],76.4 µM (inactive)
same,GI50,[4],95.1 µM (inactive)
same,GI50,[53],66.2 µM (inactive)
same,GI50,[6],> 100 µM (inactive)
same,GI50,[7],73.6 µM (inactive)
same,GI50,[8],33.1 µM (inactive)
same,GI50,[9],61.1 µM (inactive)
same,GI50,[10],> 100 µM (inactive)
same,GI50,[54],> 100 µM (inactive)
same,GI50,[11],65.6 µM (inactive)
same,GI50,[12],> 100 µM
same,GI50,[13],68.4 µM (inactive)
same,GI50,[14],> 100 µM (inactive)
same,GI50,[15],51.9 µM (inactive)
same,GI50,[16],20.6 µM (inactive)
same,GI50,[17],> 100 µM (inactive)
same,GI50,[18],> 100 µM (inactive)
same,GI50,[19],> 100 µM (inactive)
same,GI50,[20],> 100 µM (inactive)
same,GI50,[21],> 100 µM (inactive)
same,GI50,[22],74.5 µM (inactive)
same,GI50,[23],75.2 µM (inactive)
same,GI50,[24],81.8 µM (inactive)
same,GI50,[25],86.5 µM (inactive)
same,GI50,[27],76.7 µM (inactive)
same,GI50,[55],> 100 µM (inactive)
same,GI50,[28],39.4 µM (inactive)
same,GI50,[29],86.5 µM (inactive)
same,GI50,[30],35.9 µM (inactive)
same,GI50,[31],96.6 µM (inactive)
same,GI50,[32],20.8 µM (inactive)
same,GI50,[33],> 100 µM (inactive)
same,GI50,[34],74.6 µM (inactive)
same,GI50,[56],27.5 µM (inactive)
same,GI50,[36],> 100 µM (inactive)
same,GI50,[37],32.1 µM (inactive)
same,GI50,[38],53 µM (inactive)
same,GI50,[39],> 100 µM (inactive)
same,GI50,[40],61.5 µM (inactive)
same,GI50,[41],48.6 µM (inactive)
same,GI50,[43],> 100 µM (inactive)
same,GI50,[44],47.5 µM (inactive)
same,GI50,[45],26.1 µM (inactive)
same,GI50,[46],60.7 µM (inactive)
same,GI50,[57],> 100 µM (inactive)
same,GI50,[47],> 100 µM (inactive)
same,GI50,[48],58.1 µM (inactive)
same,GI50,[49],88.3 µM (inactive)
same,GI50,[50],46.9 µM (inactive)
same,GI50,[51],> 100 µM (inactive)
same,GI50,[52],39.5 µM (inactive)
